Key:
[1] = tested on: HCT116 cells; assay: Screening of chemical libraries for IR-mediated cellular cannibalism (imaging flow cytometry, confocal validation); type: cell-based, human; settings: 8 Gy irradiated HCT116 cells, 10 μM compound, 24 h culture
Description: FIG. 4 Identification of cannibalism modulators triggered by ionizing radiation. Compounds from the Prestwick (A) and CEA (F) libraries were tested for their capacities to induce cellular cannibalism after ionizing radiation. Cannibal cells were detected after homotypic cultures of 8 gray γ-irradiation HCT116 cells in the presence or absence of 10 μM of the Prestwick (A) and CEA […] library compounds. Each dot represents one compound. Representative images are shown in (B, G). (C, H) HCT116 cells were treated with the indicated drugs. After 24 h of treatment, cell death was monitored by staining with 3,3 dihexyloxacarbocyanine iodide (DiOC6(3)) and PI^+, and the percentage of dying (DiOC6(3)^low PI^−, open bars) and dead (DiOC6(3)^low PI^+, closed bars) cells was determined by cytofluorometry. Validation of the cannibalism inducers by fluorescent microscopy. Representative images (D, I) and quantification (E, J) are shown. Results are means s.e.m. of triplicate determinations.
Untreated HCT116 cells were labeled with CMFDA (green fluorescence, CMFDA^+) or CMTMR, (red fluorescence, CMTMR) and treated HCT116 cells with CMFDA (green fluorescence, CMFDA^+). The following cell mixtures were performed: untreated CMTMR^+ HCT116 cells were mixed with untreated CMFDA^+ HCT116 cells, or untreated CMTMR^+ HCT116 cells were mixed with treated CMFDA^+ HCT116 cells. Then, cells were co-cultured during 24 hours in the presence or absence of the pharmacological inhibitor of ROCK, Y27632 (30 μM), the pan-caspase inhibitor, Z-VAD-fmk (ZVAD, 100 μM), the inhibitor of caspase-1, Ac-YVAD-cmk (YVAD, 100 μM), the necroptosis inhibitor, Necrostatin-1 (NEC1, 30 μM), the inhibitor of the vacuolar type H(+)-ATPase (V-ATPase) inhibiting autophagy, Bafilomycin A1 (BafA1, 50 nM), the inhibitor of Cdks with an anti-mitotic activity, Roscovitine (Rosco, 10 μM). After 24 hours of co-culture, both detached and adherent cells were collected and stained with Hoechst […] (10 μg/mL) during 1 hour at 37° C. in warmed complete medium. To detect phosphatidylserine (PS) exposure and plasma membrane permeability, labeled HCT116 cells were successively incubated with Biotin-AnnexinV (BD Pharmingen) as recommended by manufacturer, […] BV786-Streptavidin (BD Biosciences) and 3 μM DRAQ7 (BioStatus) during 15 minutes at 25° C. After washing with PBS solution, samples were immediately analyzed using an imaging flow cytometer FlowSight® (Amnis®, part of EMD Millipore). Data were acquired at a 20× magnification, using INSPIRE software. The 405 nm, 488 nm, and 561 nm lasers were used for excitation. Brightfield, Annexin V-BV786, DRAQ7, CMFDA, CMTMR and Hoechst […] stainings were detected using respectively channels for 420-480 nm, 745-800 nm, 642-745 nm, 480-560 nm, 595-642 nm and 430-505 nm. At least 1000 events of cells per sample were analyzed. Additional single-labeled controls were prepared to normalize fluorescent signal across different channels. Acquired data were analyzed using the IDEAS analysis software (v6.1; Merck-Millipore). Gating strategy was the following. Cells were gated for focused cells using the Gradient RMS feature. Cells were gated for single cells using the aspect ratio and area features. For the cannibalism detection, cells were gated in the double positive CMFDA^+ and CMTMR^+ staining.
To detect PS exposure, plasma membrane permeability and cell cycle progression, cells were after co-culture sequentially labeled with specific fluorescent probes (such as FITC-conjugated AnnexinV, propidium iodide, and Hoechst 33342) and analyzed by flow cytometry. Both detached and adherent cells were collected and stained with Hoechst […] (10 μg/ml) during 1 hour at 37° C. in warmed complete medium. After washing with PBS, HCT116 cells were suspended in 1× binding buffer supplemented with fluorescein isothiocyanate (FITC)-conjugated Annexin V (BD Biosciences) and propidium iodide (PI, 1 μg/mL) (Sigma), as per manufacturer's instructions. […]

[2] = tested on: CT26 cells; assay: Anti-tumor vaccination assay, CT26 cells in BALB/c mice; type: in vivo, mouse; settings: for frequency of mice showing a protective response: 8 Gy + 10 μM compound 24 h
Description: FIG. 5. Identification of cannibalism modulators as immunogenic cell death inducers. MCA205 (A) or CT26 (E, I, M, Q) cells were treated with the indicated drugs. After 24 h of coculture with the indicated treatment, cell death was monitored by staining DiOC6(3) and PI, and the percentage of dying (DiOC6(3)^low PI^−, open bars) and dead (DiOC6(3)^low PI^+, closed bars) cells was determined by cytofluorometry. (B-D) MCA205 cells or (F-H, J-L, N-P, R-T) CT26 cells cocultured after x irradiation with the indicated compounds were inoculated subcutaneously into the right flank of […] or BALB/c mice, respectively. Seven days later, the mice were rechallenged with live cells injected into the opposite flank, and tumor growth was monitored (five mice per group).
FIG. 6. Tumor vaccination experiments. CT26 cells were treated for 24 hours with 10 μM VP331 (A, F, K), 10 μM Minaprine (B, G, L), 10 μM Lopa87 (C, H, M), 10 μM SG6163F (D, I, N), 10 μM Azaguanine-8 (8-aza) (E, J, O) alone or combined with 8 Gy ionizing radiation and inoculated (s.c.) into immunocompetent BALB/c mice, which were rechallenged at the opposite flank 7 days later with the same cancer cells. The percentage of tumor-free mice was evaluated three times a week for the following 38 days. Percentage of total tumor free mice (A-E), tumor free-mice at the first injection site (F to J, P) or at the second injection site (K to O, Q) are shown. (*P<0.05, **P<0.01, ***P<0.001, two-way ANOVA).
The combination of IRCCE with IR induces efficient antitumor immunity. Considering that immunogenic cell death (ICD) inducers were identified (such as Digoxin, Digitoxin, Lanatoside C or Doxorubicin hydrochloride)^3, 4, 48-51) as IRCCE, the ability of these compounds to induce an antitumor immunity after radiotherapy was evaluated. First, a preclinical approaches was developed to study the immunological effects of IRCCE on two mouse models of carcinoma (colon CT26 carcinoma and fibrosarcoma MCA205). Initially, the ability of the combination of IRCCE+IR to trigger a specific anti-tumor immune response was appreciated using immunocompetent mice through anti-tumor vaccination assays. According to previously published studies^52, the injection of cancer cells succumbing to an immunogenic cell death (ICD) into immunocompetent mice must elicit a protective immune response that is specific for tumor antigens. Thus, 3×10^5 MCA205 cells were first treated with 10 μM of SG6163F for 24 hours. Then, treated cells were inoculated subcutaneously in 200 μl PBS into the lower flank of 8-week-old female C57BL/6 mice. One week later, 3×10^4 untreated control cells were inoculated into the contralateral flank of mice. Tumors were evaluated weekly using a common caliper. Animals bearing tumors that exceeded 20-25% body mass were euthanatized. […] Then, 3×10^6 CT26 cells were irradiated with 8 Gy in presence of 10 μM of SG6163F (FIGS. 5E and 5F), VP331 (FIGS. 5I and 5J), Minaprine dihydrochloride (FIGS. 5M and 5N) or LOPA87 (FIGS. 5Q and 5R) for 24 hours. Then, cells were inoculated as previously described subcutaneously in […] into the lower flank of 8-week-old female BALB/c mice. One week later, 5×10^5 untreated control cells were inoculated into the contralateral flank of mice and tumors were evaluated weekly using a common caliper. As previously mentioned, animals bearing tumors that exceeded 20-25% body mass were euthanatized. The percentage of dying cells in each condition was evaluated by determining with DiOC(6)3/IP staining (FIGS. 5E, 5I, 5M and 5Q). Finally, the ability of these compounds to repress the growth of cancer cells that have been injected 7 days after injection of irradiated and treated cancer cells was appreciated.
A second anti-tumor vaccination assay was done on CT26 mouse models of carcinoma as previously described. […]

[3] = second assay: CT26 cells, rechallenge 7 days later
[4] = first assay: CT26 cells, rechallenge one week later

Row | Compound | enhancement of IR-mediated cellular cannibalism [1] | protective response after injection of cancer cells ([2]; second assay: CT26 cells treated with 10 μM compound alone (no IR)) | frequency of mice showing a protective response [2, 3] | frequency of mice showing a protective response [2, 4]
1 | Nc1nc2[nH]nnc2c(=O)[nH]1 [Azaguanine-8] | efficient cellular cannibalism enhancer | induce an increase of protective response | Significant increases in the frequency of mice showing a protective response | –
2 | C[C@H]1O[C@@H](O[C@H]2[C@@H](O)C[C@H](O[C@H]3[C@@H](O)C[C@H](O[C@H]4CC[C@@]5(C)[C@H](CC[C@@H]6[C@@H]5CC[C@]5(C)[C@@H](C7=CC(=O)OC7)CC[C@]65O)C4)O[C@@H]3C)O[C@@H]2C)C[C@H](O)[C@@H]1O [Digitoxin] | efficient cellular cannibalism enhancer | – | – | –
3 | C[C@H]1O[C@@H](O[C@H]2[C@@H](O)C[C@H](O[C@H]3[C@@H](O)C[C@H](O[C@H]4CC[C@@]5(C)[C@H](CC[C@@H]6[C@@H]5C[C@@H](O)[C@]5(C)[C@@H](C7=CC(=O)OC7)CC[C@]65O)C4)O[C@@H]3C)O[C@@H]2C)C[C@H](O)[C@@H]1O [Digoxin] | efficient cellular cannibalism enhancer | – | – | –
4 | COc1cccc2c1C(=O)c1c(O)c3c(c(O)c1C2=O)C[C@@](O)(C(=O)CO)C[C@@H]3O[C@H]1C[C@H](N)[C@H](O)[C@H](C)O1.Cl [Doxorubicin hydrochloride] | efficient cellular cannibalism enhancer | – | – | –
5 | CC(C(=O)O)c1ccc(-c2ccccc2)c(F)c1 (stereo not shown) [Flurbiprofen] | efficient cellular cannibalism enhancer | – | – | –
6 | CN(C)c1ccc(-c2cc(=O)[nH]c(-c3ccccc3)n2)cc1 [LOPA87] | efficient cellular cannibalism enhancer | – | Significant increases in the frequency of mice showing a protective response | significant increase in the frequency of mice showing a protective response
7 | CC(=O)O[C@H]1C[C@H](O[C@H]2[C@@H](O)C[C@H](O[C@H]3[C@@H](O)C[C@H](O[C@H]4CC[C@@]5(C)[C@H](CC[C@@H]6[C@@H]5C[C@@H](O)[C@]5(C)[C@@H](C7=CC(=O)OC7)CC[C@]65O)C4)O[C@@H]3C)O[C@@H]2C)O[C@H](C)[C@H]1O[C@@H]1O[C@H](CO)[C@@H](O)[C@H](O)[C@H]1O [Lanatoside C] | efficient cellular cannibalism enhancer | – | – | –
8 | CN1CCc2c(c3ccccc3n2Cc2ccccc2)C1 [Mebhydroline 1,5-naphtalene-disulfonate] | efficient cellular cannibalism enhancer | – | – | –
9 | COc1cc(O)ccc1/C=N/c1ccccc1C(=O)Nc1ccccc1 [RN-1-026] | efficient cellular cannibalism enhancer | – | – | –
10 | CN1c2ccccc2C(=O)N(c2ccccc2)C1c1ccc(-c2csc(CO)n2)s1 (stereo not shown) [VP43] | efficient cellular cannibalism enhancer | – | – | –
11 | COc1ccc(C)cc1/C=N/[C@@H]1C[C@@H]2C[C@H]([C@H]1C)C2(C)C [VP331] | efficient cellular cannibalism enhancer | – | Significant increases in the frequency of mice showing a protective response | significant increase in the frequency of mice showing a protective response
12 | O=C(N/N=C/c1ncc[nH]1)NC12CC3CC(CC(C3)C1)C2 [VP450] | efficient cellular cannibalism enhancer | – | – | –
13 | Myricetin | efficient cellular cannibalism enhancer | – | – | –

Source: patent publication US11517575B2, “Use of minaprine to reduce tumor growth” (Institut Gustave-Roussy, priority 2019, dated 2022)
